According to article PMC5762309 (Oncotarget, 2017):
Like-named read-outs stand apart in the source and are kept apart here.

Assays:
[1] = biological target: T1, EGFR(L747-E749del, A750P) (Homo sapiens, UniProt P00533, A750P/DEL747-749); test: KINOMEScan; assay type: binding; parameters: dose or concentration left out as unconfirmed
T1 construct: purchased DiscoverX KINOMEscan

BaF3-tel-KIT-A829P = test: Anti-proliferation assay, transformed BaF3 cells; assay type: cell-based; conditions: Mus musculus, 72 hours, CellTiter-Glo
Text: (§1) Retroviral constructs for BaF3-KIT mutants were made based on the pMSCVpuro (Clontech) backbone. For TEL-KIT vector, the first 1 kb of human TEL gene with an artificial myristoylation sequence ([…]) was cloned into the pMSCVpuro retroviral vector, followed by a 3xFLAG tag sequence. Then, the kinase domain coding sequence of KIT was inserted in-frame between TEL and 3xFLAG sequences. For full-length expression vectors, the coding sequences of KIT variants were directly cloned in pMSCVpuro vector with a 3xFLAG tag at the C-terminal end. All mutagenesis was performed using the QuikChange Site-Directed Mutagenesis Kit (Stratagene) following the manufacturer’s instructions. Retrovirus was packaged in HEK293T cells by transfecting KIT-containing MSCV vectors together with two helper plasmids. Virus supernatants were harvested 48 h after transfection and filtered before infection. Then BaF3 cells were infected with harvested virus supernatants using spinoculation protocol, and stable cell lines were obtained by puromycin selection for 48 h. The IL-3 concentrations in the culture medium were gradually withdrawn until cells were able to grow in the absence of IL-3.
(§2) Cells were grown in 96-well culture plates (2500/well). The compounds of various concentrations were added into the plates. Cell proliferation was determined after treatment with compounds for 72 hours. Cell viability was measured using the CellTiter–Glo assay (Promega, USA), according to the manufacturer’s instructions, and luminescence was measured in a multi-label reader (Envision, PerkinElmer, USA). Data were normalized to control groups (DMSO) and represented by the mean of three independent measurements with standard error <20%. GI50 values were calculated using Prism 5.0 (GraphPad Software, San Diego, CA).

BaF3-tel-KIT-T670I = test: Anti-proliferation assay, transformed BaF3 cells; assay type: cell-based; conditions: Mus musculus, 72 hours, CellTiter-Glo
Text: as §1, §2

BaF3-tel-KIT-T670I-V559D = test: Anti-proliferation assay, transformed BaF3 cells; assay type: cell-based; conditions: Mus musculus, 72 hours, CellTiter-Glo
Text: as §1, §2

BaF3-tel-KIT-D816V = test: Anti-proliferation assay, transformed BaF3 cells; assay type: cell-based; conditions: Mus musculus, 72 hours, CellTiter-Glo
Text: as §1, §2

BaF3-tel-KIT-L576P = test: Anti-proliferation assay, transformed BaF3 cells; assay type: cell-based; conditions: Mus musculus, 72 hours, CellTiter-Glo
Text: as §1, §2

BaF3-tel-KIT = test: Anti-proliferation assay, transformed BaF3 cells; assay type: cell-based; conditions: Mus musculus, 72 hours, CellTiter-Glo
Text: as §1, §2

BaF3-tel-KIT-V559D-V654A = test: Anti-proliferation assay, transformed BaF3 cells; assay type: cell-based; conditions: Mus musculus, 72 hours, CellTiter-Glo
Text: as §1, §2

BaF3-tel-KIT-V654A = test: Anti-proliferation assay, transformed BaF3 cells; assay type: cell-based; conditions: Mus musculus, 72 hours, CellTiter-Glo
Text: as §1, §2

BaF3-tel-KIT-V559D = test: Anti-proliferation assay, transformed BaF3 cells; assay type: cell-based; conditions: Mus musculus, 72 hours, CellTiter-Glo
Text: as §1, §2

BaF3-tel-KIT-N822K = test: Anti-proliferation assay, transformed BaF3 cells; assay type: cell-based; conditions: Mus musculus, 72 hours, CellTiter-Glo
Text: as §1, §2

[2] = test system: CSF1R transformed BaF3 cells; test: Anti-proliferation assay, transformed BaF3 cells; assay type: cell-based; conditions: Mus musculus
Description: Then we used the DiscoverX’s KINOMEScan platform to further examine CHMFL-KIT-031’s kinome-wide selectivity profile. […] Besides the strong binding to V559D, it also bound strongly to KIT wt, L576P and A829P.
as §2

LZK = biological target: T2, LZK (Homo sapiens, UniProt O43283); test: KINOMEScan; assay type: binding; parameters: dose or concentration left out as unconfirmed
T2 construct: purchased DiscoverX KINOMEscan

MAP4K3 = biological target: T3, MAP4K3 (Homo sapiens, UniProt Q8IVH8); test: KINOMEScan; assay type: binding; parameters: dose or concentration left out as unconfirmed
T3 construct: purchased DiscoverX KINOMEscan

[3] = test system: BaF3-TEL-KIT-V559D tumors; test: BaF3-TEL-KIT-V559D allograft model
KIT wt = KIT wt (Homo sapiens, UniProt P10721); test: Kd determination by MST; assay type: binding; parameters: wt KIT residues 544-935 with a His tag; His tag; made in house; host or cells: SF9 insect cells (baculovirus); conditions: purified protein
KIT wt, sequence (P10721 544-935): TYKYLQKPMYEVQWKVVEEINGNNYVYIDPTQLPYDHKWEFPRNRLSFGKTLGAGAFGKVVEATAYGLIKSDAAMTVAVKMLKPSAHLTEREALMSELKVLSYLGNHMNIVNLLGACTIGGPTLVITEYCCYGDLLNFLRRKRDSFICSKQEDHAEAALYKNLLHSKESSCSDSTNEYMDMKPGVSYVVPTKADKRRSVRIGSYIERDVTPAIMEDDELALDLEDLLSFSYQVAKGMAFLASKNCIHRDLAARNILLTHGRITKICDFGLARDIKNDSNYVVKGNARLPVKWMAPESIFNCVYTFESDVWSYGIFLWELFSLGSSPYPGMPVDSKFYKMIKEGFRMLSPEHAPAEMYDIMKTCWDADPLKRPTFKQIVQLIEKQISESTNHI

KIT V654A = KIT V654A (Homo sapiens, UniProt P10721, V654A); test: KIT auto-phosphorylation in transformed BaF3 cells; conditions: 2h
KIT V654A, sequence (P10721 546-976 V654A): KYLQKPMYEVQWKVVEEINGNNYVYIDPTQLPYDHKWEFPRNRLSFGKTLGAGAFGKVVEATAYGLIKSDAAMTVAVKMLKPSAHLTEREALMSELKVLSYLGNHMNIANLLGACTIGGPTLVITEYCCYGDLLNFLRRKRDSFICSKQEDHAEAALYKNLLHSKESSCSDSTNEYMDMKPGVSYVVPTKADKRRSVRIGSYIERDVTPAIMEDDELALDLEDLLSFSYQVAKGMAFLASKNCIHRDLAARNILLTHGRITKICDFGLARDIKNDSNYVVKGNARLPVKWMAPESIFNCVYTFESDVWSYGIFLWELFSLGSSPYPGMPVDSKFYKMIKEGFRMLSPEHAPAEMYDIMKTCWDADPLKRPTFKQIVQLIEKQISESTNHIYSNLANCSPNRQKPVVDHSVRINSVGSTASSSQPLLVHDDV

KIT T670I/V559D = KIT T670I/V559D (Homo sapiens, UniProt P10721, T670I/V559D); test: KIT auto-phosphorylation in transformed BaF3 cells
KIT T670I/V559D, sequence (P10721 26-976 V559D/T670I): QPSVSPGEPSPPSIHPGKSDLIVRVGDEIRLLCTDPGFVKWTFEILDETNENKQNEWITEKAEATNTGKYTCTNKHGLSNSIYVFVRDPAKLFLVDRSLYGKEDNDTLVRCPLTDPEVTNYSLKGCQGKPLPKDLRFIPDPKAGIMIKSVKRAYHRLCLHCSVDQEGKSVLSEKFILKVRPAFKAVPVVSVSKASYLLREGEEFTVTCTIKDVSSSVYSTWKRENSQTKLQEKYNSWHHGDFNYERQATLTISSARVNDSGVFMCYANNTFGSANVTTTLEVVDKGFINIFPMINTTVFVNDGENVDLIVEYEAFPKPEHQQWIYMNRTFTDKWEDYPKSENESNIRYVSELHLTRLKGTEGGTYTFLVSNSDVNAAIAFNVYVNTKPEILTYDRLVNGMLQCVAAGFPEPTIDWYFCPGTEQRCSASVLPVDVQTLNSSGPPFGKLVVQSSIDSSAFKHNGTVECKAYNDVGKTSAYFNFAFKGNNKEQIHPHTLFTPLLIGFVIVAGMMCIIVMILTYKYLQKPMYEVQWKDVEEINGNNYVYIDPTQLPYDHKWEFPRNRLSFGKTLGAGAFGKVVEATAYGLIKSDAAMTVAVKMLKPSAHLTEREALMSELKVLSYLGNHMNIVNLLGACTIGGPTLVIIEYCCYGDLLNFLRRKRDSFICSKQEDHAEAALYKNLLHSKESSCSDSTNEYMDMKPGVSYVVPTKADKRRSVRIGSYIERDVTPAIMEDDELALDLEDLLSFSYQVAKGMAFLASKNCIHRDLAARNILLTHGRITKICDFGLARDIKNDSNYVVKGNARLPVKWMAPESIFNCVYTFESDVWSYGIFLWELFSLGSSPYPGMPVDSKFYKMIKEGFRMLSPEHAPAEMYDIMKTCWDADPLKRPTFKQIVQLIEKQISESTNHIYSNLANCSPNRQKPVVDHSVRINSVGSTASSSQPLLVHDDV

EGFR(L858R,T790M) = biological target: T4, EGFR(L858R,T790M) (Homo sapiens, UniProt P00533, L858R/T790M); test: KINOMEScan; assay type: binding
T4 construct: purchased DiscoverX KINOMEscan

SYK = biological target: T5, SYK (Homo sapiens, UniProt P43405); test: KINOMEScan; assay type: binding; parameters: dose or concentration left out as unconfirmed
T5 construct: purchased DiscoverX KINOMEscan

p38-alpha = biological target: T6, p38-alpha (Homo sapiens, UniProt Q16539); test: KINOMEScan; assay type: binding; parameters: dose or concentration left out as unconfirmed
T6 construct: purchased DiscoverX KINOMEscan
T6 sequence (Q16539 whole entry): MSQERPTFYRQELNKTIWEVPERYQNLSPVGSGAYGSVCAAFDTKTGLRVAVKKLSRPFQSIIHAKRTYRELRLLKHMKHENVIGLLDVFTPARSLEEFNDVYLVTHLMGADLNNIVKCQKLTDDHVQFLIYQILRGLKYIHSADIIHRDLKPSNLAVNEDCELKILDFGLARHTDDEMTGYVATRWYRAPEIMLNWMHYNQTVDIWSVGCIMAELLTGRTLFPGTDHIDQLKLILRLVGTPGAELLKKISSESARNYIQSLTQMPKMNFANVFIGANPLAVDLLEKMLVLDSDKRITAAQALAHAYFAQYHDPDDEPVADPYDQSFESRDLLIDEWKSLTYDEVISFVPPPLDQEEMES

CSNK1G1 = biological target: T7, CSNK1G1 (Homo sapiens, UniProt Q9HCP0); test: KINOMEScan; assay type: binding; parameters: dose or concentration left out as unconfirmed
T7 construct: purchased DiscoverX KINOMEscan
T7 sequence (Q9HCP0 whole entry): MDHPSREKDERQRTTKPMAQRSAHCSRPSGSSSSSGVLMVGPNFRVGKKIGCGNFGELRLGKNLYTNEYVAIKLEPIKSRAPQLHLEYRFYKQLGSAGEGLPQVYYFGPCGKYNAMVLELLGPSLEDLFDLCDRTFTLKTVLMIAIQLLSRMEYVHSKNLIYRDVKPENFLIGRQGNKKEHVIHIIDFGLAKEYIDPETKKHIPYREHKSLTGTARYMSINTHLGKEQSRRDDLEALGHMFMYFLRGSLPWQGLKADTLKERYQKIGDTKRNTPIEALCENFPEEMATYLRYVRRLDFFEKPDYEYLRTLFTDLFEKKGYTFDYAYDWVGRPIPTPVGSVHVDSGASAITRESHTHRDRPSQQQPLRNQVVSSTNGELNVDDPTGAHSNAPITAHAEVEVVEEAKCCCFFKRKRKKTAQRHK

[4] = biological target: T8, RSK4(Kin.Dom.2-C-terminal) (Homo sapiens, UniProt Q9UK32); test: KINOMEScan; assay type: binding
T8 construct: RSK4(Kin.Dom.2-C-terminal); purchased DiscoverX KINOMEscan

LATS2 = biological target: T9, LATS2 (Homo sapiens, UniProt Q9NRM7); test: KINOMEScan; assay type: binding; parameters: dose or concentration left out as unconfirmed
T9 construct: purchased DiscoverX KINOMEscan
T9 sequence (Q9NRM7 whole entry): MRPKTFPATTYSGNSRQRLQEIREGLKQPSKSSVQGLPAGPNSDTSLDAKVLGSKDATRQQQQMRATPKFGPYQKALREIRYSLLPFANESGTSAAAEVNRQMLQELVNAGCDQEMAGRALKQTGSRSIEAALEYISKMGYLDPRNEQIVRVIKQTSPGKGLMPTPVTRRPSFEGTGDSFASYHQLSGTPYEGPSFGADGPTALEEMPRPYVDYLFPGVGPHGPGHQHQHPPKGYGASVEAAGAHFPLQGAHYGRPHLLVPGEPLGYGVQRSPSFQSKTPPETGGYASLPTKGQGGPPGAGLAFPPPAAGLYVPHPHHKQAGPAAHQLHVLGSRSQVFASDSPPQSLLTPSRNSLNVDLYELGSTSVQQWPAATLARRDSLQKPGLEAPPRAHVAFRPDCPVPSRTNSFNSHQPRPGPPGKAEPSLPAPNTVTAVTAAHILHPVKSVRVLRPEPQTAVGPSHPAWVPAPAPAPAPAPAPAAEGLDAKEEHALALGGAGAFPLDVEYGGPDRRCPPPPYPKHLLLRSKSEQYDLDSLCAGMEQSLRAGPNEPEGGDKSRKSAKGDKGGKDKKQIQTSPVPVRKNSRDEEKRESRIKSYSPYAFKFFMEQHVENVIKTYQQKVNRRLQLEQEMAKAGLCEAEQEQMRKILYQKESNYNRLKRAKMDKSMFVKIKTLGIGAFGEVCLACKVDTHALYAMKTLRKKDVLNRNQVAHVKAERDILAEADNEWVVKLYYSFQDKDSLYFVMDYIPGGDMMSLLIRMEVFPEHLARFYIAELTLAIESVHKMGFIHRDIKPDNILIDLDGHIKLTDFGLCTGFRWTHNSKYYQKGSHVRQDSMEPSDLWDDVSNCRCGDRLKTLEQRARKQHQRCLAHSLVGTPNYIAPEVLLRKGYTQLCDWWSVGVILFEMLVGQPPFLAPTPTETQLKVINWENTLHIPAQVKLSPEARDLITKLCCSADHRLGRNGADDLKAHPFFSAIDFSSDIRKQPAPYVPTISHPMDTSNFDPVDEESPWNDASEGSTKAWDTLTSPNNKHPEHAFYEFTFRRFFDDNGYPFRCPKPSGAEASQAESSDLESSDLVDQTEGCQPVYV

FLT3(ITD,D835V) = test: KINOMEScan; assay type: binding; parameters: dose or concentration left out as unconfirmed
CSK = biological target: T10, CSK (Homo sapiens, UniProt P41240); test: KINOMEScan; assay type: binding; parameters: dose or concentration left out as unconfirmed
T10 construct: purchased DiscoverX KINOMEscan
T10 sequence (P41240 whole entry): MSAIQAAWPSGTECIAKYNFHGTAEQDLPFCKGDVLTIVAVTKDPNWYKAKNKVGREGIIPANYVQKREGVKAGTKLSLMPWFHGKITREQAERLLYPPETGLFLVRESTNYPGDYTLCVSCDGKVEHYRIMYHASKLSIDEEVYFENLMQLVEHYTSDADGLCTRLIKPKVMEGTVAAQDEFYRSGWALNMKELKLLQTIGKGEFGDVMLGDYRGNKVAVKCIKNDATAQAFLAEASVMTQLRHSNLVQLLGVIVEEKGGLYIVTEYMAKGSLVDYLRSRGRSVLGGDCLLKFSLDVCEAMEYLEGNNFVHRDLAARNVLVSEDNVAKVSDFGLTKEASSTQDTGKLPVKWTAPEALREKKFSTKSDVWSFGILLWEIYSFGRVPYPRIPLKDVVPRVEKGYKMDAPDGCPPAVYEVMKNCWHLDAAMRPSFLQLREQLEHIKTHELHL

PLK2 = biological target: T11, PLK2 (Homo sapiens, UniProt Q9NYY3); test: KINOMEScan; assay type: binding; parameters: dose or concentration left out as unconfirmed
T11 construct: purchased DiscoverX KINOMEscan
T11 sequence (Q9NYY3 whole entry): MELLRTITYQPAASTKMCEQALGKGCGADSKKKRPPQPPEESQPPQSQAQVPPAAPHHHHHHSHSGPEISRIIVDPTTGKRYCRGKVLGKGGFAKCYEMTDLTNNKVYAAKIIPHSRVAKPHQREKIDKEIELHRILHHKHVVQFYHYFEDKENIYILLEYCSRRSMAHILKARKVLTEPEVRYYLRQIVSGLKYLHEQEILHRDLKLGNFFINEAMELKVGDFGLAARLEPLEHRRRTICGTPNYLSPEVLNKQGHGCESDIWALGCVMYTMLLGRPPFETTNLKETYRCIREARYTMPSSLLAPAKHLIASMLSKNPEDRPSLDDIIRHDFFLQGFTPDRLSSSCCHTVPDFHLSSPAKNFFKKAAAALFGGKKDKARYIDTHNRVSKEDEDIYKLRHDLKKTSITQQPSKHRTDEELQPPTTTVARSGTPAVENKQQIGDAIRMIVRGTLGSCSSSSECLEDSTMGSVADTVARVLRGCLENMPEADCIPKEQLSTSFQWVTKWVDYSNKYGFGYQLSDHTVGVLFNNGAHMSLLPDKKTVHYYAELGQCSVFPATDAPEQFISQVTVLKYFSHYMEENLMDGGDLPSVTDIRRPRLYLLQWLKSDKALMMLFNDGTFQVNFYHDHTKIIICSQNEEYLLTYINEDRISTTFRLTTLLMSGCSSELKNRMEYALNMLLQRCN

COc1cc(C(=O)NCC(=O)Nc2ccc3c(/C=C/c4ccccn4)n[nH]c3c2)cc(OC)c1OC [CHMFL-KIT-031]
KINOMEScan profiling value [1]: 100 | GI50 (BaF3-tel-KIT-A829P): 1.8 µM | GI50 (BaF3-tel-KIT-T670I): > 10 µM | GI50 (BaF3-tel-KIT-T670I-V559D): > 10 µM | GI50 (BaF3-tel-KIT-D816V): > 10 µM | GI50 (BaF3-tel-KIT-L576P): 2.2 µM | GI50 (BaF3-tel-KIT): > 10 µM | GI50 (BaF3-tel-KIT-V559D-V654A): 0.81 µM | GI50 (BaF3-tel-KIT-V654A): 0.4 µM | GI50 (BaF3-tel-KIT-V559D): 0.025 µM | GI50 (BaF3-tel-KIT-N822K): > 10 µM | GI50 [2]: 2.4 µM | KINOMEScan profiling value (LZK): 100 | KINOMEScan profiling value (MAP4K3): 100 | TGI ([3]; 100mg/kg/d IP, 10 days): 68.5% | KIT, AKT, S6 and STAT3 phosphorylation in tumor tissue ([3]; starting from 50 mg/kg, Western blot after 10-day treatment): significantly affect | Kd (KIT wt): 6.64 µM | EC50 (KIT V654A; EC50 pY703 auto-phosphorylation): 0.508 µM | EC50 (KIT V654A; EC50 pY719 auto-phosphorylation): 2.2 µM | EC50 (KIT V654A; EC50 pY823 auto-phosphorylation): 4.6 µM | EC50 (KIT T670I/V559D): > 10 µM | EC50 (KIT T670I/V559D; read-out: EC50 pY719 auto-phosphorylation, KIT T670I/V559D transformed BaF3 cells, 2h): > 10 µM | EC50 (KIT T670I/V559D; read-out: EC50 pY823 auto-phosphorylation, KIT T670I/V559D transformed BaF3 cells, 2h): > 10 µM | KINOMEScan profiling value (EGFR(L858R,T790M)): 75 | KINOMEScan profiling value (SYK): 100 | KINOMEScan profiling value (p38-alpha): 94 | KINOMEScan profiling value (CSNK1G1): 100 | KINOMEScan profiling value [4]: 100 | KINOMEScan profiling value (LATS2): 100 | KINOMEScan profiling value (FLT3(ITD,D835V)): 73 | KINOMEScan profiling value (CSK): 87 | KINOMEScan profiling value (PLK2): 100
